# Reference: US20230076527A1, “TREATMENT OF PAROXYSMAL NOCTURNAL HEMOGLOBINURIA” (Apellis Pharmaceuticals, Inc., priority 2020, published 2023)
# Where “and” joins values, the source holds several entries; their conditions need not be identical. Identical values can stand only once.
# How the values were obtained:
# patients with PNH [1] = settings: in vivo
# Experimental: (§1) Pharmacokinetics and pharmacodynamics were also assessed, including change from baseline in percentage of PNH Type II + III RBCs at week 16, and change from baseline in percentage of PNH Type II + III RBCs opsonized with C3 at week 16. Incidence and severity of treatment-emergent adverse events (TEAEs), incidence of thromboembolic events, changes from baseline in laboratory parameters, and changes from baseline in electrocardiogram (ECG) parameters were also assessed.
# (§2) The primary endpoint was assessed on ITT set (included all subjects who were randomized), and change from Baseline to Week 16 in Hb level was measured. […] Safety Analysis was conducted in the safety set (which included all subjects who were randomized and received at least 1 dose of monotherapy Study Drug).
# (§3) Subjects were divided into various sets. The Run-in Set included all subjects who received at least one dose of APL-2. The Intent-to-Treat (ITT) Set included all subjects who were randomized. The analyses using this set was based upon the randomized treatment group allocated. The Safety Set included all subjects who were randomized and received at least 1 dose of monotherapy Study Drug. This set was used for safety analyses. The analyses using this set were based upon the actual treatment received. The Modified ITT (mITT) Set included all subjects in the ITT set who received at least one dose of monotherapy beyond their Week 4 after randomization in the Randomized Controlled Period. The analyses using this set were based upon the randomized treatment group allocated. […] Subjects were required to receive their randomized treatment to be included in the set and so analyses using this set were by default based upon the actual treatment group allocated. The Completer Set consisted of all subjects in the ITT set who completed the Week 16 efficacy assessment for the study. The analyses using this set were based upon the randomized treatment group allocated.
# patients with PNH [2] = experiment: PEGASUS safety, 16-week randomized controlled period
# Experimental: as §1, §2, §3
# patients with PNH [3] = experiment: PEGASUS 48-week efficacy results (open-label period); format: in vivo, human
# Experimental: Day 1 to Week 16 was defined as the Randomized Controlled Period, over which endpoints were assessed. After completion of the Randomized Controlled Period (the end of Week 16), all subjects continue into a 32-week Open-Label Study Drug Period in which all subjects receive twice-weekly doses of Study Drug (1,080 mg). During this period, subjects return to the clinical site on Weeks 17, 18, 20, 22 and 24 and every 4 weeks, thereafter, until Week 48 for efficacy and safety assessments.
# PNH Type II + III RBCs = experiment: PEGASUS pharmacodynamics: C3 loading and clone size of PNH red blood cells; format: in vivo, human; settings: week 16 versus baseline
# From the text: FIGS. 9B and 9C includes descriptive analysis of observed values, based only on those subjects who had both baseline and week 16 data.
# patients with PNH [4] = experiment: PEGASUS post hoc hematologic response categorization; format: in vivo, human; settings: 16 weeks
# From the text: Complete response: no transfusions required, stable Hb in the normal range, and no evidence of hemolysis (i.e., LDH ≤1.5× upper limit of normal [ULN], ARC ≤150,000 /µL). Major response: no transfusion, normal Hb, but with evidence of hemolysis (LDH >1.5×ULN and/or ARC >150,000 /µL). Good response: no transfusion, but with chronic mild anemia or evidence of hemolysis. Partial response: chronic moderate anemia and/or occasional transfusions (<3 units/6 months). Minor response: regular transfusions required (3-6 units/6 months). No response: regular and frequent transfusions required (>6 units/6 months).
# patients with PNH [5] = experiment: PEGASUS Phase 3 trial, 16-week randomized controlled period: hematologic and fatigue efficacy endpoints; format: in vivo, human; settings: for non-inferiority to eculizumab on absolute reticulocyte count / non-inferiority to eculizumab on transfusion avoidance: key secondary endpoint; for non-inferiority to eculizumab on absolute reticulocyte count: margin 10; for non-inferiority to eculizumab on transfusion avoidance: margin -20%
# From the text: The PEGASUS trial protocol consisted of an 8-week screening period, a 52-week treatment period, and a 12-week follow up period.
# The treatment period consisted of three parts: a 4-week run-in period, a 16-week Randomized Controlled Period and a 32-week open-label Study Drug only period.
# During the Randomized Controlled Period, subjects returned to the clinical site at Weeks 1, 2, 4, 6, 8, 12 and 16 for efficacy and safety assessments.
# The primary endpoint in the study was an increase in hemoglobin level from baseline to Week 16 (excluding data before the Randomized Controlled Period). Key secondary endpoints included transfusion avoidance, reduction in reticulocyte count, reduction in LDH level, and changes in Functional Assessment of Chronic Illness Therapy (FACIT)-fatigue scale score, Version 4. […] Hierarchical significance testing for secondary efficacy endpoints was gated on the success of the primary efficacy endpoint. Post hoc analyses included hemoglobin stabilization (defined as avoidance of a >1 g/dL decrease from baseline) in the absence of transfusions and hematologic response to treatment.
# The between-treatment group comparison for the primary efficacy endpoint was performed using a mixed effect model for repeated measures (MMRM) (Mallinckrodt, DID 42:30 (2008)). The model included fixed categorical effects for treatment group, study visit, stratification variables (based on transfusion history and platelet count) and the study visit-bytreatment group interaction, as well as the continuous, fixed covariate of baseline Hb level.
# The number and percentage of subjects with transfusion avoidance were tabulated by treatment group and compared between treatment groups using a stratified Cochran-Mantel Haenszel (CMH) chi-square test. The treatment difference in percentages and 95% confidence interval for the difference were presented using the stratified method (Miettinen, Statistics in Medicine 4:213-226 (1985)).
# The change from baseline at Week 16 in reticulocyte count, LDH level and FACIT-fatigue scale score were analyzed using the same methods described for the primary analysis of the primary efficacy endpoint except using their own baseline as a covariate, using the ITT and mITT sets.
# For any subject who discontinued study treatment, any values collected after discontinuation continued to be used in analyses (Treatment Policy).
# Additionally, the primary endpoint of hemoglobin change from baseline (before first dose of pegcetacoplan) to week 16 and secondary endpoints (transfusion avoidance, change from baseline at week 16 in absolute reticulocyte count and lactate dehydrogenase) were analyzed by subgroups based on number of packed red blood cell transfusions (<4 vs ≥4) within the 12 months prior to Day -28 and platelet count at screening (<100,000 /mm^3 vs >100,000 /mm^3).
# patients with PNH [6] = experiment: PEGASUS 48-week safety; settings: 48-week study
# [7] = 16-week randomized, controlled treatment period
# [8] = week 16, <4 transfusions stratum
# [9] = week 16, <100,000 /mm^3 platelet stratum
# [10] = week 16, censored for transfusion
# [11] = week 16, ≥4 transfusions stratum
# [12] = week 16, ≥100,000 /mm^3 platelet stratum
substance,measurement,setting,value
"Poly(oxy-1,2-ethanediyl), α-hydro-ω-hydroxy-, 15,15ʹ -diester with N-acetyl-L-isoleucyl-L-cysteinyl-L-valyl-1-methyl-L-tryptophyl-L-glutaminyl-L-α-aspartyl-L-tryptophylglycyl-L-alanyl-L-histidyl-L-arginyl-L-cysteinyl-L-threonyl-2-[2-(2-aminoethoxy)ethoxy]acetyl-N^6-carboxy-L-lysinamide cyclic (2-->12)-(disulfide) [pegcetacoplan]",All Infections,patients with PNH [1],12 (29.3) n(%)
same,Sepsis,patients with PNH [1],0 n(%)
same,LDH increase in subjects discontinuing due to hemolysis,patients with PNH [2]; 3 subjects of the pegcetacoplan group,3-11 × ULN
same,hemolysis (adverse event),"patients with PNH [2]; 16-week period, four patients pegcetacoplan, nine patients eculizumab",9.8%
same,patients who experienced a serious adverse event,"patients with PNH [2]; 16-week period, seven of 41 pegcetacoplan, 6 of 39 eculizumab",17.1%
same,Abdominal Pain (adverse event),patients with PNH [2]; 16-week randomized period,5 (12.2) n(%)
same,Any TEAE,patients with PNH [2]; 16-week randomized period,36 (87.8) n(%)
same,Back Pain (adverse event),patients with PNH [2]; 16-week randomized period,3 (7.3) n(%)
same,Diarrhea (adverse event),patients with PNH [2]; 16-week randomized period,9 (22.0) n(%)
same,Discontinuations due to AE,patients with PNH [2]; 16-week randomized period,3 (7.3) n(%)
same,Dizziness (adverse event),patients with PNH [2]; 16-week randomized period,1 (2.4) n(%)
same,Headache (adverse event),patients with PNH [2]; 16-week randomized period,3 (7.3) n(%)
same,Meningitis,patients with PNH [2]; 16-week randomized period,0 n(%)
same,Serious AE,patients with PNH [2]; 16-week randomized period,7 (17.1) n(%)
same,cases of meningitis,patients with PNH [2]; 16-week randomized period,No cases
same,deaths,patients with PNH [2]; 16-week randomized period,no deaths
same,fatigue (adverse event),patients with PNH [2]; 16-week randomized period,2 (4.9) n(%)
same,hemolysis (adverse event),patients with PNH [2]; 16-week randomized period,4 (9.8) n(%)
same,injection site reactions,patients with PNH [2]; 16-week randomized period,15 (35.6) n(%)
same,tolerability,patients with PNH [2]; 16-week randomized period,generally well tolerated
same,diarrhea,patients with PNH [2]; [7],22.0%
same,fatigue (adverse event),patients with PNH [2]; [7],4.9%
same,headache,patients with PNH [2]; [7],7.3%
same,injection site reactions,patients with PNH [2]; [7],36.6%
same,Adverse Events as primary reason for withdrawal from study treatment (all reported as hemolysis),patients with PNH [2]; through week 16,3 (7.3) n (%)
same,"hemoglobin, mean improvement from baseline",patients with PNH [3]; Week 48,2.7 g/dL
same,patients who remained transfusion free,patients with PNH [3]; throughout the 48-week study,73%
same,"hemoglobin, mean increase from baseline as stated in Example 3",patients with PNH [3]; week 16,2.7 g/dL
same,C3 loading on Type III RBCs,PNH Type II + III RBCs,decreased
same,PNH clone size (Type II + III),PNH Type II + III RBCs,increased
same,complete hematologic responses,patients with PNH [4]; ITT,39%
same,good hematologic responses,patients with PNH [4]; ITT,31.7%
same,minor hematologic responses,patients with PNH [4]; ITT,4.9%
same,no hematologic response,patients with PNH [4]; ITT,0%
same,partial hematologic responses,patients with PNH [4]; ITT,14.6%
same,patients achieving at least a good hematological response,"patients with PNH [4]; 29/41 pegcetacoplan, 2/39 eculizumab",70.7%
same,patients achieving at least a three-point improvement in FACIT-fatigue score,patients with PNH [5]; 16 weeks,73%
same,patients achieving reticulocyte normalization,"patients with PNH [5]; 16 weeks, 30-120 × 10^9 cells/L",78%
same,patients achieving LDH normalization,"patients with PNH [5]; 16 weeks, normal range 113-226 U/L",71%
same,"transfusion avoidance, adjusted risk difference versus eculizumab","patients with PNH [5]; <4 transfusions group, 95% CI 26.2%-81.3%",53.8%
same,"FACIT-fatigue score, adjusted mean change from baseline to Week 16",patients with PNH [5]; MMRM,9.2
same,"absolute reticulocyte count, adjusted mean decrease from baseline to week 16",patients with PNH [5]; baseline 217×10^9 /L,1.35e+11 L⁻¹
same,non-inferiority to eculizumab on absolute reticulocyte count,patients with PNH [5],Non-inferiority was met
same,non-inferiority to eculizumab on absolute reticulocyte count,patients with PNH [5]; listed as Pegcetacoplan,met non-inferiority
same,non-inferiority to eculizumab on transfusion avoidance,patients with PNH [5],Non-inferiority was met
same,non-inferiority to eculizumab on transfusion avoidance,patients with PNH [5]; listed as Pegcetacoplan,met non-inferiority
same,subjects who required transfusions post randomization,"patients with PNH [5]; out of 41 (pegcetacoplan group), out of 39 (eculizumab group)",6 subjects
same,proportion of transfusion-free patients,"patients with PNH [5]; over 16 weeks, <4 transfusions within 12 months prior to Day -28",85%
same,transfusion avoidance (transfusion-free patients),"patients with PNH [5]; over 16 weeks, all patients",85.4% and 85%
same,proportion of transfusion-free patients,"patients with PNH [5]; over 16 weeks, platelet stratum <100,000 /mm^3",83.3%
same,proportion of transfusion-free patients,"patients with PNH [5]; over 16 weeks, platelet stratum ≥100,000 /mm^3",86.2%
same,proportion of transfusion-free patients,"patients with PNH [5]; over 16 weeks, ≥4 transfusions within 12 months prior to Day -28",85.7% and 86%
same,"transfusion avoidance, adjusted risk difference versus eculizumab","patients with PNH [5]; overall patients, 95% CI 48.3%-76.8%",62.5%
same,hemoglobin higher than the eculizumab arm,patients with PNH [5]; week 16,53%
same,mean hemoglobin change from baseline regardless of baseline platelet count strata,patients with PNH [5]; week 16,significantly increased
same,LDH LS mean change from baseline,patients with PNH [5]; [8],-52.31 U/L
same,absolute reticulocyte count LS mean change from baseline,patients with PNH [5]; [8],-152.59 × 10^9 cells/L
same,LDH LS mean change from baseline,patients with PNH [5]; [9],-73.14 U/L
same,absolute reticulocyte count LS mean change from baseline,patients with PNH [5]; [9],-147.17 × 10^9 cells/L
same,adjusted mean hemoglobin change from baseline,"patients with PNH [5]; week 16, all patients, baseline 8.7 g/dL, post-transfusion data excluded",2.4 g/dL
same,proportion of patients achieving hemoglobin normalization,patients with PNH [5]; [10],34%
same,proportion of patients achieving ≥2 g/dL improvement in hemoglobin,patients with PNH [5]; [10],61%
same,proportion of patients achieving hemoglobin stabilization,"patients with PNH [5]; week 16, censored for transfusion, avoidance of >1 g/dL decrease from baseline",85%
same,adjusted mean hemoglobin change from baseline,"patients with PNH [5]; week 16, fewer than 4 transfusions within 12 months prior to Day -28, baseline 8.9 g/dL",2.97 g/dL
same,indirect bilirubin level,"patients with PNH [5]; week 16, including post-transfusion data",13.8 µmol/L
same,non-inferiority to eculizumab in the change from baseline in LDH,"patients with PNH [5]; week 16, margin 20",did not demonstrate non-inferiority
same,mean FACIT-fatigue score,"patients with PNH [5]; week 16, observed data, baseline 32.2 (pegcetacoplan), 31.6 (eculizumab)",41.8 (SD 9.61)
same,improvement in adjusted means of hemoglobin versus eculizumab,"patients with PNH [5]; week 16, p<0.0001, MMRM",3.8 g/dL
same,LDH LS mean change from baseline,patients with PNH [5]; [11],-54.99 U/L
same,absolute reticulocyte count LS mean change from baseline,patients with PNH [5]; [11],-124.75 × 10^9 cells/L
same,LDH LS mean change from baseline,patients with PNH [5]; [12],-41.96 U/L
same,absolute reticulocyte count LS mean change from baseline,patients with PNH [5]; [12],-137.28 × 10^9 cells/L
same,LDH adjusted mean change from baseline,"patients with PNH [5]; week 16, baseline 258 U/L (pegcetacoplan), 309 U/L (eculizumab)",-15 U/L
same,"transfusion avoidance, adjusted risk difference versus eculizumab","patients with PNH [5]; ≥4 transfusions group, 95% CI 64.2%-98.5%",81.4%
same,cases of meningitis,patients with PNH [6],No cases
same,diarrhea,patients with PNH [6],21%
same,discontinuations due to hemolysis,patients with PNH [6],five
same,hemolysis (adverse event),patients with PNH [6],24%
same,injection site reactions,patients with PNH [6],36%
same,patients who experienced a serious adverse event,patients with PNH [6]; 24 of 80 pegcetacoplan monotherapy-treated patients,30%
same,deaths,"patients with PNH [6]; due to COVID-19, unrelated to study treatment",One death
same,SAEs assessed to be possibly related to study treatment,patients with PNH [6]; five of the SAEs,6%
same,patients who discontinued due to adverse events,patients with PNH [6]; twelve out of 80 patients,15%
